In general, IC50 refers to the concentration that inhibits the measured activity by half.

Assay [1] concerns the target T1, TRK A, B & C kinase.
T1 construct: fused on or other part: Carna's Trk kinases are usually GST-tagged cytoplasmic domains
Description: TRK A, B & C kinase assay (ADP-Glo / HTRF KinEASE-TK). Type of assay: biochemical. The settings on record: ADP-Glo or HTRF KinEASE-TK kit, isoform not specified, read-out: IC50 (nM) Enzymatic assay. The procedure: ADP-Glo assay kit was purchased from Promega. poly (Glu, Tyr), Magnesium sulfate, Bovine serum albumin (BSA) and dimethylsulfoxide(DMSO) were purchased from Sigma-Aldrich. Tris-HCl buffer was purchased from BD Gentest. HTRF KinEASE-TK kit was purchased from cisbio. TRK A, B & C kinase was purchased from Carna bioscience.
Kinase assay was performed for Chemical Compounds 1-61 using two methods using luminescent ADP-Glo assay kit (Promega) and HTRF KinEASE-TK assay kit (cisbio). The luminescent ADP-Glo assay kit (Promega) measures ADP formed from a kinase reaction. ADP converted into ATP, which is then converted into light by Ultra-Glo luciferase. The HTRF KinEASE-TK assay kit (cisbio) measures tyrosine kinase activities using one substrate and a universal detection system.
ADP-Glo Assay Kit (Promega)
The protein kinase assay was performed for Chemical Compounds 1-61 at […] concentrations are 0.4 ng/ul of TrKA, 0.5 ng/ul of TrKB and 3 ng/ul of TrKC, respectively), 5 μL of 1 ug/ul stock solution of poly(glu, Tyr), 5 μL of compounds or assay buffer, 5 μL of ATP (125 μM stock solution).
The assay was started by incubating the reaction mixture in a 96-well plate at 30° C. for 1 hr. After the incubation, the assay was terminated by the addition of 25 […] Detection Reagent was added, and the 96-well plate was shaken and then incubated for additional 30 min at ambient temperature. The 96-well reaction plate was then read on an Enspire plate reader. The IC50 values were derived through a curve fitting using SigmaPlot.
HTRF KinEASE-TK Assay Kit (Cisbio)
The HTRF KinEASE-TK assay was performed for Chemical Compounds 1-61 in 384-well low volume microplate (Greiner). The HTRF KinEASE-TK assay format involves the two steps. The first step is kinase reaction step. This kinase reaction step was performed at RT (room temperature) in final volume of 10 ul according to the following assay reaction recipe: 10 ul of kinase mixture (Kinase (2 ul)+ATP (2 ul)+Substrate (2 ul)+Compound (4 ul)). Kinase final concentrations were 0.3 ng/ul of TRKA, 0.1 ng/ul of TRKB, 0.03 ng/ul of TRKC, respectively. ATP final concentrations were 14.7 uM (TRKA), 4.77 uM (TRKB), 25.6 uM (TRKC) respectively. TK-substrate final concentration was 0.3 ng/ul. The mixtures exposed to Dose response concentration (DRC) compound from 0 to 100 nM for 40 min. During the kinase reaction step, the kinase reaction was started by the addition of ATP. Kinase phosphorylates the substrate.
The second is detection step. 10 ul of detection reagents (5 ul Sa-XL 665 in EDTA+5 ul TK Antibody-Eu in EDTA) was added to kinase mixture. This step was performed at room temperature for 1 hr. The detection reagent detects phosphorylated substrates.
Finally 384-well reaction plate was then read on FlexStation 3 machine. The fluorescence was measured at 620 nm (Cryptate) and 665 nm (XL665). A ratio is calculated ([…]/620)×10^4 for each well. The IC50 value was derived through a curve fitting using GraphPad Prism. Table 1 below includes the results of the assays.
Background: ADP-Glo turns the ADP formed in a reaction into a luminescent signal.

For assay [2], the system named is TF-1 cells. Description: Cell proliferation assay (TF-1). The settings on record: 10 ng/ml human β-NGF, 72 hours exposure, read-out: IC50 (nM) Cell-based assay (TF-1). The procedure:
(§1) Doxorubicin was purchased from Sigma Aldrich (D1515). All compounds were diluted in DMSO (Sigma Aldrich, D2650). AlamarBlue® cell viability reagent was purchased from Thermo Scientific (88952). CellTiter 96® AQueous One Solution Cell proliferation assay was purchased from Promega. KM12-luc cells were obtained from JCRB (National Institute of Health Sciences, Tokyo, Japan). They were maintained in DMEM medium (GIB-11965-118) supplemented with 10% fetal bovine serum (Gibco, 16000-044) and MEM Non-Essential Amino Acids Solution (Thermo Scientific, 11140-050). TF-1 cells were obtained from ATCC. They were maintained in RPMI medium (GIB-A10491) supplemented with 10% fetal bovine serum (Gibco, 16000-044), GM-CSF (Thermo Scientific, 11140-050), and β-NGF (R&D systems). Trypsin/EDTA was purchased from Gibco (GIB-25300-054, 0.05%). 96-well plates were purchased from Corning Inc.
(§2) The proliferation assay was performed for Chemical Compounds 1-61 s in media supplemented with 10% FBS, using AlamarBlue® cell viability reagent or CellTiter 96® AQueous One Solution Cell proliferation assay kit. Cells were cultured in humidified 37° C. incubator with 5% CO2. To evaluate the antiproliferation activity of compounds, TF-1 cells were adjusted to GM-CSF free media (RPMI, 10% FBS, and 1% penicillin-streptomycin) for 16 hr and were seeded in 96-well plates at 30,000 cells/well with medium (RPMI, 10% FBS, 1% penicillin-streptomycin and 10 ng/ml human β-NGF). KM12-luc were seeded at 10,000 cells per well into 96-well plates. After overnight incubation, serial dilutions of compounds were added to triplicate wells, and cells were exposed for 72 hours. The final concentration of DMSO was adjusted to 0.5% in media. Quantitation of cell growth was assessed using two kinds of reagent. 20 ul of AlamarBlue® reagent in an amount equal to 10% of the culture volume was added to each well and were incubated in humidified 37° C. incubator with 5% CO2 for 2 hr. Otherwise, 20 ul of CellTiter 96® reagent was added to each well and were incubated in the same conditions as previously described. Data were plotted, and GI50 values were calculated using GraphPad software. Table 1 below includes the results of the assays.

The subject of assay [3] is KM12-luc cells. Description: Cell proliferation assay (KM12). The conditions noted are these: 72 hours exposure, read-out: IC50 (nM) Cell-based assay (KM12). The procedure:
as §1, §2

For the compound `Cc1nnc(-c2cnn3ccc(N4CCCC4c4cc(F)ccc4F)nc23)o1` (stereo not drawn) [Chemical Compound 1, 2-(5-(2-(2,5-difluorophenyl)pyrrolidin-1-yl)pyrazolo[1,5-a]pyrimidin-3-yl)-5-methyl-1,3,4-oxadiazole], the IC50 in assay [1] is less than 10 nM; in assay [2], less than 100 nM; in assay [3], less than 100 nM.

For `Cc1nnc(-c2cnn3ccc(N4CCCC4c4cc(F)ccc4F)nc23)s1` (stereo not drawn) [Chemical Compound 2, 2-(5-(2-(2,5-difluorophenyl)pyrrolidin-1-yl)pyrazolo[1,5-a]pyrimidin-3-yl)-5-methyl-1,3,4-thiadiazole], the IC50 was less than 10 nM in assay [1], less than 10 nM in assay [2] and less than 100 nM in assay [3].

Consider `CCc1nnc(-c2cnn3ccc(N4CCCC4c4cc(F)ccc4F)nc23)o1` (stereo not drawn) [Chemical Compound 3, 2-(5-(2-(2,5-difluorophenyl)pyrrolidin-1-yl)pyrazolo[1,5-a]pyrimidin-3-yl)-5-ethyl-1,3,4-oxadiazole], for which the IC50 in assay [1] was less than 10 nM; in assay [2] it was less than 10 nM; in assay [3], less than 100 nM.

On to `CCc1nnc(-c2cnn3ccc(N4CCCC4c4cc(F)ccc4F)nc23)s1` (stereo not drawn) [Chemical Compound 4, 2-(5-(2-(2,5-difluorophenyl)pyrrolidin-1-yl)pyrazolo[1,5-a]pyrimidin-3-yl)-5-ethyl-1,3,4-thiadiazole], for which the IC50 in assay [1] was less than 10 nM; in assay [2] it was less than 10 nM; in assay [3], less than 100 nM.

Regarding `CC(C)c1nnc(-c2cnn3ccc(N4CCCC4c4cc(F)ccc4F)nc23)o1` (stereo not drawn) [Chemical Compound 5, 2-(5-(2-(2,5-difluorophenyl)pyrrolidin-1-yl)pyrazolo[1,5-a]pyrimidin-3-yl)-5-isopropyl-1,3,4-oxadiazole], the IC50 in assay [1], in assay [2] and in assay [3] was less than 10 nM each time.

With `CC(C)c1nnc(-c2cnn3ccc(N4CCCC4c4cc(F)ccc4F)nc23)s1` (stereo not drawn) [Chemical Compound 6, 2-(5-(2-(2,5-difluorophenyl)pyrrolidin-1-yl)pyrazolo[1,5-a]pyrimidin-3-yl)-5-isopropyl-1,3,4-thiadiazole], the IC50 in assay [1], in assay [2] and in assay [3] was less than 10 nM throughout.

Consider `Fc1ccc(F)c(C2CCCN2c2ccn3ncc(-c4nnc(C5CC5)o4)c3n2)c1` (stereo not drawn) [Chemical Compound 7, 2-cyclopropyl-5-(5-(2-(2,5-difluorophenyl)pyrrolidin-1-yl)pyrazolo[1,5-a]pyrimidin-3-yl)-1,3,4-oxadiazole], for which the IC50 in assay [1] is less than 10 nM; in assay [2] it was less than 10 nM; in assay [3] it was less than 100 nM.

Take `CC(C)(O)C1CN(C(=O)/C=C/c2cnn3ccc(N4CCC[C@@H]4c4cc(F)ccc4F)nc23)CCN1` (stereo partly drawn) [Chemical Compound 52, (E)-3-(5-((R)-2-(2,5-difluorophenyl)pyrrolidin-1-yl)pyrazolo[1,5-a]pyrimidin-3-yl)-1-(3-(2-hydroxypropan-2-yl)piperazin-1-yl)prop-2-en-1-one]: in assay [1], the half-inhibitory concentration (IC50) was less than 10 nM.

Turning to `CN1CCN(C(=O)/C=C/c2cnn3ccc(N4CCC[C@@H]4c4cc(F)ccc4F)nc23)CC1` [Chemical Compound 53, (R,E)-3-(5-(2-(2,5-difluorophenyl)pyrrolidin-1-yl)pyrazolo[1,5-a]pyrimidin-3-yl)-1-(4-methylpiperazin-1-yl)prop-2-en-1-one], the half-maximal inhibitory concentration (IC50) in assay [1] is less than 10 nM; in assay [3], less than 100 nM.

As for `CC(C)N1CCN(C(=O)/C=C/c2cnn3ccc(N4CCC[C@@H]4c4cc(F)ccc4F)nc23)CC1` [Chemical Compound 55, (R,E)-3-(5-(2-(2,5-difluorophenyl)pyrrolidin-1-yl)pyrazolo[1,5-a]pyrimidin-3-yl)-1-(4-isopropylpiperazin-1-yl)prop-2-en-1-one], the figures for the IC50 in assay [1] and in assay [3] were less than 10 nM and less than 100 nM, respectively.

For `O=C(/C=C/c1cnn2ccc(N3CCC[C@@H]3c3cc(F)ccc3F)nc12)N1CCCNCC1` [Chemical Compound 56, (R,E)-1-(1,4-diazepan-1-yl)-3-(5-(2-(2,5-difluorophenyl)pyrrolidin-1-yl)pyrazolo[1,5-a]pyrimidin-3-yl)prop-2-en-1-one], the IC50 in assay [1] is greater than 100 nM.

As to `CC1(O)CCN(C(=O)/C=C/c2cnn3ccc(N4CCC[C@@H]4c4cc(F)ccc4F)nc23)CC1` [Chemical Compound 58, (R,E)-3-(5-(2-(2,5-difluorophenyl)pyrrolidin-1-yl)pyrazolo[1,5-a]pyrimidin-3-yl)-1-(4-hydroxy-4-methylpiperidin-1-yl)prop-2-en-1-one], the IC50 in assay [1] and in assay [3] was less than 10 nM each time.

Turning to `O=C(/C=C/c1cnn2ccc(N3CCC[C@@H]3c3cc(F)ccc3F)nc12)N1CC[C@H](O)C1` [Chemical Compound 60, (E)-3-(5-((R)-2-(2,5-difluorophenyl)pyrrolidin-1-yl)pyrazolo[1,5-a]pyrimidin-3-yl)-1-((S)-3-hydroxypyrrolidin-1-yl)prop-2-en-1-one], the IC50 in assay [1] was less than 10 nM; in assay [3], less than 100 nM.

As to “(E)-3-(5-((R)-2-(2,5-difluorophenyl)pyrrolidin-1-yl)pyrazolo[1,5-a]pyrimidin-3-yl)-1-((R)-3-hydroxypyrrolidin-1-yl)prop-2-en-1-one [Chemical Compound 59]”, the figures for the IC50 in assay [1] and in assay [3] were less than 10 nM and less than 100 nM, respectively.

For the compound “(R,E)-3-(5-(2-(2,5-difluorophenyl)pyrrolidin-1-yl)pyrazolo[1,5-a]pyrimidin-3-yl)-1-(4-ethylpiperazin-1-yl)prop-2-en-1-one [Chemical Compound 54]”, the IC50 in assay [1] was greater than 100 nM.

Consider “(R,E)-3-(5-(2-(2,5-difluorophenyl)pyrrolidin-1-yl)pyrazolo[1,5-a]pyrimidin-3-yl)-1-(4-hydroxypiperidin-1-yl)prop-2-en-1-one [Chemical Compound 57]”, for which the results for the IC50 in assay [1] and in assay [3] were less than 10 nM and less than 100 nM, respectively.

Values taken from patent US9701681B2, “Fused ring heteroaryl compounds and their use as Trk inhibitors” (CMG Pharmaceutical Co., Ltd., priority 2014, dated 2017).
